Experiments:
HSP90α = molecular target: T1, HSP90α (Homo sapiens, UniProt P07900); experiment: competitive binding assay against FITC-labeled geldanamycin ([…] compound)
T1 construct: gene HSP90AA1; purified recombinant HSP90α (N-terminal domain assay kit)

HSP90α (HSP90AA1) = molecular target: T2, HSP90α (HSP90AA1) (Homo sapiens, UniProt P07900); experiment: SPR (Biacore […], immobilized HSP90AA1); also C-terminal HSP90α:PPID AlphaLISA inhibition at […]; format: binding
T2 construct: recombinant human HSP90AA1 protein

Kd (HSP90α (HSP90AA1)) [µM]	Structure (SMILES)	competitive binding assay against FITC-labeled geldanamycin (1000 nM compound) (HSP90α)
	CC(C)c1cc(C(=O)N2Cc3ccc(CN4CCN(C)CC4)cc3C2)c(O)cc1O [onalespib]	unlike the N-terminal HSP90 inhibitors, neither HVH-2930 nor novobiocin exhibited any binding activity to the N-terminal region of HSP90α
97.2	COc1c(C(=O)Nc2ccc3c(C)nn(CCC4CCN(C)CC4)c3c2)ccc2c1C=CC(C)(C)O2 [HVH-2930]	

From article PMC11024854 (Theranostics, 2024)
